Legend:
Nucleic Acid = test: Binding affinity for calf thymus DNA measured as change in melting temperature; type: nucleic-acid assay; conditions: Bos taurus
[1] = Binding affinity for Poly (dA-dT) measured as change in melting temperature
Pneumocystis carinii [2] = test: Anti-P. carinii activity determined as change in number of Pneumocystis carinii trophozoites from day 1 through day 5 in culture at 1 uM; type: functional
Pneumocystis carinii [3] = test: Percent of control growth of Pneumocystis carinii trophozoites was determined; type: functional; design: concentration or dose not given beside the values
Pneumocystis carinii [4] = test: Anti-P. carinii activity determined as change in number of Pneumocystis carinii trophozoites from day 1 through day 7 in culture at 1 uM; type: functional

Compound	ΔTm (Nucleic Acid) [°C]	ΔTm [1] [°C]	Change in No. of trophozoites x 10E-5 (Pneumocystis carinii [2])	Growth (Pneumocystis carinii [3]) [%]	Change in No. of trophozoites x 10E-5 (Pneumocystis carinii [4])
N=C(NC1CCCC1)c1ccc(N2CCCN(c3ccc(C(=N)NC4CCCC4)cc3)CC2)cc1	17.9	26.5		103	34.32
CC(C)/N=C(\N)c1ccc(N2CCCN(c3ccc(/C(N)=N/C(C)C)cc3)CC2)cc1	13.8	20		61	20.2
N=C(NCCO)c1ccc(N2CCCN(c3ccc(/C(N)=N/CCO)cc3)CC2)cc1	11.1	14.7		101	33.62
N=C(NC1CC1)c1ccc(N2CCCN(c3ccc(C(=N)NC4CC4)cc3)CC2)cc1	15.3	23.6		33	10.92
COc1cc(Cc2cnc(N)nc2N)cc(OC)c1OC.Cc1cc(NS(=O)(=O)c2ccc(N)cc2)no1 [CO-TRIMOXAZOLE]				<0	
c1cc(N2CCCN(c3ccc(C4=NCCCN4)cc3)CC2)ccc1C1=NCCCN1	15.5	21.3		32	10.73
CC(C)(C)/N=C(\N)c1ccc(N2CCCN(c3ccc(/C(N)=N/C(C)(C)C)cc3)CC2)cc1	4.1	7.4		65	21.57

The next lines start with results.

ΔTm (Nucleic Acid) [°C]	ΔTm [1] [°C]	Compound	Change in No. of trophozoites x 10E-5 (Pneumocystis carinii [2])	Growth (Pneumocystis carinii [3]) [%]	Change in No. of trophozoites x 10E-5 (Pneumocystis carinii [4])
15	23.1	N=C(N)c1ccc(N2CCCN(c3ccc(C(=N)N)cc3)CC2)cc1	-3.32	<0	
17.4	23.6	N=C(NCCCO)c1ccc(N2CCCN(c3ccc(/C(N)=N/CCCO)cc3)CC2)cc1		105	34.79
11.1	20.6	N=C(N)c1ccc(OCCCCCOc2ccc(C(=N)N)cc2)cc1 [PENTAMIDINE]	-3.98	<0	
11.8	13.3	CCCCNC(=N)c1ccc(N2CCCN(c3ccc(C(=N)NCCCC)cc3)CC2)cc1		58	19.19

— ChEMBL document CHEMBL1133802, “N,N'-bis[4-(N-alkylamidino)phenyl]homopiperazines as anti-Pneumocystis carinii agents” (2001)
